#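 Method: 48-hour compound exposure of cells in 96-well plates, five concentrations, linear interpolation of endpoints. GI50 is the concentration that inhibits growth by half. TGI denotes the concentration required for complete inhibition of growth.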
# Assays:
# Assay in all cases: inhibition of tumour cell growth, NCI panel, 48 h
# [1] = test system: SK-MEL-2 melanoma
# [2] = test system: UACC-257 melanoma
# [3] = test system: DMS 114 small cell lung
# [4] = test system: XF 498 CNS
# [5] = test system: U251 CNS
# [6] = test system: A549 NSCLC
# [7] = test system: DLD-1 colon
# [8] = test system: OVCAR-5 ovarian
# [9] = test system: NCI-H522 lung
# [10] = test system: M19-MEL melanoma
# [11] = test system: MOLT-4 leukemia
# [12] = test system: SK-MEL-5 melanoma
# [13] = test system: CAKI-1 renal
# [14] = test system: KM12 colon
# [15] = test system: MALME-3M melanoma
# [16] = test system: COLO 205 colon
# [17] = test system: A498 renal
# [18] = test system: NCI-H23 lung
# [19] = test system: LXFL 529 NSCLC
# [20] = test system: NCI-H460 lung
# [21] = test system: HL-60(TB) leukemia
# [22] = test system: SW-620 colon
# [23] = test system: KM20L2 colon
# [24] = test system: DMS 273 small cell lung
# [25] = test system: SF-268 CNS
# [26] = test system: IGROV1 ovarian
# [27] = test system: UACC-62 melanoma
# [28] = test system: LOX IMVI melanoma
# [29] = test system: HOP-62 NSCLC
# [30] = test system: TK-10 renal
# [31] = test system: SF-295 CNS
# [32] = test system: SN12C renal
# [33] = test system: SK-OV-3 ovarian
# [34] = test system: HOP-92 NSCLC
# [35] = test system: RXF 393 renal
# [36] = test system: M14 melanoma
# [37] = test system: OVCAR-3 ovarian
# [38] = test system: SNB-75 CNS
# [39] = test system: OVCAR-8 ovarian
# [40] = test system: OVCAR-4 ovarian
# [41] = test system: 786-0 renal
# [42] = test system: HCT-15 colon
# [43] = test system: SK-MEL-28 melanoma
# [44] = test system: CCRF-CEM leukemia
# [45] = test system: HT29 colon
# [46] = test system: RXF-631 renal
# [47] = test system: RPMI-8226 leukemia
# [48] = test system: K-562 leukemia
# [49] = test system: ACHN renal
# [50] = test system: EKVX NSCLC
# [51] = test system: UO-31 renal
# [52] = test system: SF-539 CNS
# [53] = test system: HOP-18 NSCLC
# [54] = test system: NCI-H226 lung
# [55] = test system: HCC-2998 colon
# [56] = test system: SNB-78 CNS
# [57] = test system: HCT-116 colon
# [58] = test system: SR leukemia
# [59] = test system: SNB-19 CNS
smiles,measurement,setting,value
O=c1ccc2ccccc2cc1[O-].O=c1ccc2ccccc2cc1[O-].[O]=[U+2]=[O],GI50,[1],11.7 µM
same,TGI,[1],38.1 µM
same,GI50,[2],6.19 µM
same,TGI,[2],44.3 µM
same,GI50,[3],19.9 µM
same,TGI,[3],55.3 µM
same,GI50,[4],19.5 µM
same,TGI,[4],40 µM
same,GI50,[5],16.5 µM
same,TGI,[5],46.5 µM
same,GI50,[6],4.78 µM
same,TGI,[6],56 µM
same,GI50,[7],19.5 µM
same,TGI,[7],> 100 µM
same,GI50,[8],30.1 µM
same,TGI,[8],> 100 µM
same,GI50,[9],11.6 µM
same,TGI,[9],56 µM
same,GI50,[10],24.8 µM
same,TGI,[10],96.7 µM
same,GI50,[11],4.71 µM
same,TGI,[11],46.2 µM
same,GI50,[12],4.99 µM
same,TGI,[12],29.4 µM
same,GI50,[13],9.44 µM
same,TGI,[13],51.9 µM
same,GI50,[14],7.15 µM
same,TGI,[14],69.7 µM
same,GI50,[15],5.72 µM
same,TGI,[15],26.3 µM
same,GI50,[16],25.3 µM
same,TGI,[16],71.7 µM
same,GI50,[17],18.6 µM
same,TGI,[17],43.1 µM
same,GI50,[18],27.2 µM
same,TGI,[18],90.7 µM
same,GI50,[19],16.8 µM
same,TGI,[19],51.6 µM
same,GI50,[20],13.6 µM
same,TGI,[20],> 100 µM
same,GI50,[21],14 µM
same,TGI,[21],52.3 µM
same,GI50,[22],7.76 µM
same,TGI,[22],39.7 µM
same,GI50,[23],4.5 µM
same,TGI,[23],90.1 µM
same,GI50,[24],6.71 µM
same,TGI,[24],> 100 µM
same,GI50,[25],22.2 µM
same,TGI,[25],51.8 µM
same,GI50,[26],23.4 µM
same,TGI,[26],84.5 µM
same,GI50,[27],16.9 µM
same,TGI,[27],39.6 µM
same,GI50,[28],14.1 µM
same,TGI,[28],> 100 µM
same,GI50,[29],23.9 µM
same,TGI,[29],53.8 µM
same,GI50,[30],17 µM
same,TGI,[30],66.3 µM
same,GI50,[31],17.7 µM
same,TGI,[31],63.5 µM
same,GI50,[32],23.5 µM
same,TGI,[32],64.1 µM
same,GI50,[33],30.2 µM
same,TGI,[33],71.2 µM
same,GI50,[34],28.1 µM
same,TGI,[34],72.1 µM
same,GI50,[35],14.4 µM
same,TGI,[35],40 µM
same,GI50,[36],16.9 µM
same,TGI,[36],54.5 µM
same,GI50,[37],8.28 µM
same,TGI,[37],50.1 µM
same,GI50,[38],14 µM
same,TGI,[38],32.8 µM
same,GI50,[39],8.83 µM
same,TGI,[39],59.9 µM
same,GI50,[40],14.7 µM
same,TGI,[40],55.1 µM
same,GI50,[41],15 µM
same,TGI,[41],40.8 µM
same,GI50,[42],17.6 µM
same,TGI,[42],> 100 µM
same,GI50,[43],15.3 µM
same,TGI,[43],47.5 µM
same,GI50,[44],6.14 µM
same,TGI,[44],> 100 µM
same,GI50,[45],2.51 µM
same,TGI,[45],6.97 µM
same,GI50,[46],11.1 µM
same,TGI,[46],41.6 µM
same,GI50,[47],17 µM
same,TGI,[47],> 100 µM
same,GI50,[48],6.75 µM
same,TGI,[48],> 100 µM
same,GI50,[49],14.2 µM
same,TGI,[49],33.1 µM
same,GI50,[50],10.4 µM
same,TGI,[50],55.7 µM
N#C/C(=C\c1cccc(Cl)c1Cl)c1ccccc1,TGI,[1],> 100 µM
same,TGI,[2],> 100 µM
same,TGI,[51],> 91.2 µM
same,TGI,[3],> 73.1 µM
same,TGI,[52],53.3 µM
same,TGI,[53],> 90.4 µM
same,TGI,[4],> 57.4 µM
same,TGI,[5],69.5 µM
same,TGI,[6],> 100 µM
same,TGI,[7],> 100 µM
same,TGI,[54],> 100 µM
same,TGI,[8],> 100 µM
same,TGI,[9],> 100 µM
same,TGI,[10],> 100 µM
same,TGI,[11],> 100 µM
same,TGI,[12],> 100 µM
same,TGI,[55],> 100 µM
same,TGI,[13],77.7 µM
same,TGI,[14],> 100 µM
same,TGI,[15],> 70 µM
same,TGI,[16],> 100 µM
same,TGI,[17],89.6 µM
same,TGI,[18],> 72.9 µM
same,TGI,[56],> 100 µM
same,TGI,[57],> 67.5 µM
same,TGI,[19],> 100 µM
same,TGI,[20],> 100 µM
same,TGI,[21],> 100 µM
same,TGI,[22],> 72.4 µM
same,TGI,[23],> 100 µM
same,TGI,[24],> 54.1 µM
same,TGI,[25],> 100 µM
same,TGI,[26],55.2 µM
same,TGI,[58],> 80.9 µM
same,TGI,[27],> 100 µM
same,TGI,[59],> 90.7 µM
same,TGI,[28],> 100 µM
same,TGI,[29],60.9 µM
same,TGI,[30],91.6 µM
same,TGI,[31],60.4 µM
same,TGI,[32],> 100 µM
same,TGI,[33],> 89.9 µM
same,TGI,[34],> 82.3 µM
same,TGI,[35],> 79.2 µM
same,TGI,[36],> 100 µM
same,TGI,[37],> 92.6 µM
same,TGI,[38],51.1 µM
same,TGI,[39],> 100 µM
same,TGI,[40],> 85.6 µM
same,TGI,[41],65.2 µM
same,TGI,[42],> 77.6 µM
same,TGI,[43],> 100 µM
same,TGI,[44],> 46.4 µM
same,TGI,[45],> 100 µM
same,TGI,[46],> 100 µM
same,TGI,[47],> 89.1 µM
same,TGI,[48],> 100 µM
same,TGI,[49],> 90.8 µM
same,TGI,[50],> 100 µM
